# Results reported in patent US10683293B2, “Optionally fused heterocyclyl-substituted derivatives of pyrimidine useful for the treatment of inflammatory, metabolic, oncologic and autoimmune diseases” (NUEVOLUTION A/S, priority 2014, dated 2020).
# Molecular target: T1, human RORγt (Ligand Binding Domain) (Homo sapiens, UniProt P51449)
# T1 construct: purchased Crelux (Planegg, Germany) batch no PC5032-1
# T1 sequence (P51449 269-508 limits assumed): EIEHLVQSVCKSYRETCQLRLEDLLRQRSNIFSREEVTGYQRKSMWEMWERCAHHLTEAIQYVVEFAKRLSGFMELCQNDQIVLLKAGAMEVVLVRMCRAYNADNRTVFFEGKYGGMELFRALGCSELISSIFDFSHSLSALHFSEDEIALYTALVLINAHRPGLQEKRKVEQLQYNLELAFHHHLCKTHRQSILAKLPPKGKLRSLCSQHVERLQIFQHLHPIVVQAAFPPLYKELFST
# Assay: Fluorescence Polarization (FP) Assay
# Settings: 100 nM human RORγt LBD, 25 nM TAMRA probe, values are activity range bounds
# Description: The activity of the compounds was evaluated using a Fluorescence Polarization (FP) Assay and, RORγ Reporter assay (also referred to as Gal4 assay). The FP assay is an in vitro assay monitoring binding within the ligand binding pocket. The RORγ and the Th17 assays (another suitable assay) are both cell-based assays monitoring functional activity of the compound assayed.
# Fluorescence Polarization (FP) Assay
# The total volume was 25 μl, in a black Perkin Elmer OptiPlate. As negative control, 1 μl DMSO was used. […] The probe is a fluorescently labeled (TAMRA) RORγt ligand identified by Nuevolution with a total molecular weight of 910 g/mole as shown in Graph A in FIG. 1.
row,IC50,Structure (SMILES)
1,< 0.5 µM,"Fc1c(NCc2ccncc2)ncnc1N(Cc1ccc(C(F)(F)F)cc1)C1CC1 [Example A41, N4-cyclopropyl-5-fluoro-N6-(4-pyridylmethyl)-N4-[[4-(trifluoromethyl)phenyl]methyl] pyrimidine-4,6-diamine]"
2,< 1 µM,"COC1CCCCC1CNc1ncnc(N(Cc2ccc(C(F)(F)F)cc2)C2CC2)c1F (centres unmarked) [Example A43, N4-cyclopropyl-5-fluoro-N6-[(2-methoxycyclohexyl)methyl]-N4-[[4-(trifluoromethyl)phenyl]methyl] pyrimidine-4,6-diamine]"
3,< 0.5 µM,"OC1(CNc2ncnc(N(Cc3ccc(C(F)(F)F)cc3)C3CC3)c2F)CCC(F)(F)CC1 [Example A44, 1-[[[6-[cyclopropyl-[[4-(trifluoromethyl)phenyl]methyl]amino]-5-fluoro-pyrimidin-4-yl]amino]methyl]-4,4-difluoro-cyclohexanol]"
4,< 2 µM,"CS(=O)(=O)CC1(CNc2ncnc(N(Cc3ccc(C(F)(F)F)cc3)C3COC3)c2F)CCOCC1 [Example A45, 5-fluoro-N6-[[4-(methylsulfonylmethyl)tetrahydro-pyran-4-yl]methyl]-N4-(oxetan-3-yl)-N4-[[4-(trifluoromethyl)phenyl]methyl] pyrimidine-4,6-diamine]"
5,< 10 µM,"CC(C)(C)OC(=O)NCC(c1ccc(C(F)(F)F)cc1)N(c1ncnc(NCc2ccc(CC(N)=O)cc2)c1F)C1CC1 (centres unmarked) [Example A47, tert-butyl N-[2-[[6-[[4-(2-amino-2-oxo-ethyl)phenyl]methylamino]-5-fluoro-pyrimidin-4-yl]-cyclopropyl-amino]-2-[4-(trifluoromethyl)phenyl]ethyl] carbamate]"
6,< 0.5 µM,"CS(=O)(=O)N1CCC(O)(CNc2ncnc(N(Cc3ccc(C(F)(F)F)cc3)C3CC3)c2F)CC1 [Example A69, 4-[[[6-[cyclopropyl-[[4-(trifluoromethyl)phenyl]methyl]amino]-5-fluoro-pyrimidin-4-yl]amino]methyl]-1-methylsulfonyl-piperidin-4-ol]"
7,< 10 µM,"O=C(O)CC1(CNc2ncnc(N(Cc3ccc(C(F)(F)F)cc3)C3CC3)c2F)CCS(=O)(=O)CC1 [Example A72, 2-[4-[[[6-[cyclopropyl-[[4-(trifluoromethyl)phenyl]methyl]amino]-5-fluoro-pyrimidin-4-yl]amino]methyl]-1,1-dioxo-thian-4-yl]acetic acid]"
8,< 0.5 µM,"N#CNC(=O)c1ccc(CNc2ncnc(N(Cc3ccc(C(F)(F)F)cc3)C3CC3)c2F)cc1 [Example A84, N-cyano-4-[[[6-[cyclopropyl-[[4-(trifluoromethyl)phenyl]methyl]amino]-5-fluoro-pyrimidin-4-yl]amino]methyl]benzamide]"
9,< 10 µM,"O=C(O)CC1CC(CNc2ncnc(N(Cc3ccc(C(F)(F)F)cc3)C3CC3)c2F)C1 (centres unmarked) [Example A92, 2-[3-[[[6-[cyclopropyl-[[4-(trifluoromethyl)phenyl]methyl]amino]-5-fluoro-pyrimidin-4-yl]amino]methyl]cyclobutyl]acetic acid]"
10,< 2 µM,"N#Cc1ccc(CN(c2ncnc(NCc3ccc(CC(N)=O)cc3)c2F)C2CC2)cn1 [Example A93, 2-[4-[[[6-[(6-cyano-3-pyridyl)methyl-cyclopropyl-amino]-5-fluoro-pyrimidin-4-yl]amino]methyl]phenyl]acetamide]"
11,< 10 µM,"NC(=O)C1CC(CNc2ncnc(N(Cc3ccc(C(F)(F)F)cc3)C3CC3)c2F)C1 (centres unmarked) [Example A96, 3-[[[6-[cyclopropyl-[[4-(trifluoromethyl)phenyl]methyl]amino]-5-fluoro-pyrimidin-4-yl]amino]methyl]cyclobutane-carboxamide]"
12,< 10 µM,"NC(=O)Cc1ccc(CNc2ncnc(N(Cc3ccc(C(F)(F)F)nn3)C3CC3)c2F)cc1 [Example A99, 2-[4-[[[6-[cyclopropyl-[[6-(trifluoromethyl)pyridazin-3-yl]methyl]amino]-5-fluoro-pyrimidin-4-yl]amino]methyl]phenyl]acetamide]"
13,< 10 µM,"CS(=O)(=O)N1CCC(C(=O)Nc2ncnc(N(Cc3ccc(C(F)(F)F)cc3)C3CC3)c2F)CC1 [Example A100, N-[6-[cyclopropyl-[[4-(trifluoromethyl)phenyl]methyl]amino]-5-fluoro-pyrimidin-4-yl]-1-methylsulfonyl-piperidine-4-carboxamide]"
14,< 10 µM,"O=S(=O)(Nc1ccc(CNc2ncnc(N(Cc3ccc(C(F)(F)F)nc3)C3CC3)c2F)cc1)C(F)F [Example A105, N-[4-[[[6-[cyclopropyl-[[6-(trifluoromethyl)-3-pyridyl]methyl]amino]-5-fluoro-pyrimidin-4-yl]amino]methyl]phenyl]-1,1-difluoro-methanesulfonamide]"
15,< 10 µM,"O=S(=O)(Nc1ccc(CNc2ncnc(N(Cc3ccc(C(F)(F)F)cn3)C3CC3)c2F)cc1)C(F)F [Example A106, N-[4-[[[6-[cyclopropyl-[[5-(trifluoromethyl)-2-pyridyl]methyl]amino]-5-fluoro-pyrimidin-4-yl]amino]methyl]phenyl]-1,1-difluoro-methanesulfonamide]"
16,< 1 µM,"CS(=O)(=O)Nc1ncc(CNc2ncnc(N(Cc3ccc(C(F)(F)F)cc3)C3CC3)c2F)cn1 [Example A111, N-[5-[[[6-[cyclopropyl-[[4-(trifluoromethyl)phenyl]methyl]amino]-5-fluoro-pyrimidin-4-yl]amino]methyl]pyrimidin-2-yl]methanesulfonamide]"
17,< 2 µM,"NC(=O)Cc1ccc(CNc2ncnc(N(Cc3ccc(C(F)(F)F)nc3)C3CC3)c2F)cn1 [Example A112, 2-[5-[[[6-[cyclopropyl-[[6-(trifluoromethyl)-3-pyridyl]methyl]amino]-5-fluoro-pyrimidin-4-yl]amino]methyl]-2-pyridyl]acetamide]"
18,< 10 µM,"NC(=O)Cc1ccc(CNc2ncnc(N(Cc3ccc(C(F)(F)F)cn3)C3CC3)c2F)cn1 [Example A113, 2-[5-[[[6-[cyclopropyl-[[5-(trifluoromethyl)-2-pyridyl]methyl]amino]-5-fluoro-pyrimidin-4-yl]amino]methyl]-2-pyridyl]acetamide]"
19,< 0.5 µM,"CS(=O)(=O)c1ccc(CNc2ncnc(N(Cc3ccc(C(F)(F)F)nc3)C3CC3)c2F)nc1 [Example A114, N4-cyclopropyl-5-fluoro-N6-[(5-methylsulfonyl-2-pyridyl)methyl]-N4-[[6-(trifluoromethyl)-3-pyridyl]methyl]pyrimidine-4,6-diamine]"
20,< 0.5 µM,"CS(=O)(=O)c1ccc(CNc2ncnc(N(Cc3ccc(C(F)(F)F)cn3)C3CC3)c2F)nc1 [Example A115, N4-cyclopropyl-5-fluoro-N6-[(5-methylsulfonyl-2-pyridyl)methyl]-N4-[[5-(trifluoromethyl)-2-pyridyl]methyl]pyrimidine-4,6-diamine]"
21,< 0.5 µM,"CN(Cc1cccc2ccccc12)c1ncnc(NCc2ccc(CC(N)=O)cc2)c1F [Example A118, 2-[4-[[[5-fluoro-6-[methyl(1-naphthylmethyl)amino]pyrimidin-4-yl]amino]methyl]phenyl]acetamide]"
22,< 2 µM,"Cn1cc(CN(c2ncnc(NCc3ccc(CC(N)=O)cc3)c2F)C2CC2)cn1 [Example A119, 2-[4-[[[6-[cyclopropyl-[(1-methylpyrazol-4-yl)methyl]amino]-5-fluoro-pyrimidin-4-yl]amino]methyl]phenyl]acetamide]"
23,< 0.5 µM,"CN(Cc1ccc2ccccc2c1)c1ncnc(NCc2ccc(CC(N)=O)cc2)c1F [Example A121, 2-[4-[[[5-fluoro-6-[methyl(2-naphthylmethyl)amino]pyrimidin-4-yl]amino]methyl]phenyl]acetamide]"
24,< 0.5 µM,"CN(Cc1ccccc1OC(F)(F)F)c1ncnc(NCc2ccc(CC(N)=O)cc2)c1F [Example A122, 2-[4-[[[5-fluoro-6-[methyl-[[2-(trifluoromethoxy)phenyl]methyl]amino]pyrimidin-4-yl]amino]methyl]phenyl]acetamide]"
25,< 10 µM,"CCN(Cc1cn(CC)nc1C)c1ncnc(NCc2ccc(CC(N)=O)cc2)c1F [Example A123, 2-[4-[[[6-[ethyl-[(1-ethyl-3-methyl-pyrazol-4-yl)methyl]amino]-5-fluoro-pyrimidin-4-yl]amino]methyl]phenyl]acetamide]"
26,< 0.5 µM,"CCN(Cc1cccc2c1OCO2)c1ncnc(NCc2ccc(CC(N)=O)cc2)c1F [Example A126, 2-[4-[[[6-[1,3-benzodioxol-4-ylmethyl(ethyl)amino]-5-fluoro-pyrimidin-4-yl]amino]methyl]phenyl]acetamide]"
27,< 0.5 µM,"CN(Cc1cccc(OC(F)F)c1)c1ncnc(NCc2ccc(CC(N)=O)cc2)c1F [Example A127, 2-[4-[[[6-[[3-(difluoromethoxy)phenyl]methyl-methyl-amino]-5-fluoro-pyrimidin-4-yl]amino]methyl]phenyl]acetamide]"
28,< 0.5 µM,"CN(Cc1cccc(OC(F)(F)F)c1)c1ncnc(NCc2ccc(CC(N)=O)cc2)c1F [Example A128, 2-[4-[[[5-fluoro-6-[methyl-[[3-(trifluoromethoxy)phenyl]methyl]amino]pyrimidin-4-yl]amino]methyl]phenyl]acetamide]"
29,< 0.5 µM,"CN(Cc1cccc(C(F)(F)F)c1)c1ncnc(NCc2ccc(CC(N)=O)cc2)c1F [Example A129, 2-[4-[[[5-fluoro-6-[methyl-[[3-(trifluoromethyl)phenyl]methyl]amino]pyrimidin-4-yl]amino]methyl]phenyl]acetamide]"
